# Reference: patent US20070148660A1, “Treatment of maladaptive substance use with H-ras antagonists” (The Regents of the University of California, priority 2005, published 2007)
# Marks after values point to notes of the source that are not given here.
# Experiments:
# [1] = tested on: NR2A subunit of the NMDAR; test: BS3 cross-linking, surface vs internalized NR2A in hippocampal slices; assay type: cell-based, mouse
# Method: (§1) Transverse hippocampal slices ([…]) were prepared from 10- to 12-week-old C57BL/6J mice. Slices were allowed to recover for 90 min in artificial cerebrospinal fluid (aCSF) saturated with 95% O2/5% CO2 containing (in mM): 126 NaCl, 1.2 KCl, 1.2 NaH2PO4, 1.2 MgCl2, 2.4 CaCl2, 18 NaHCO3, and 11 glucose. Following recovery, slices were treated with aCSF (control) or ethanol at room temperature, after which the slices were rinsed in cold aCSF, and used either for cross-linking experiments, for Ras activity assay, or for immunoprecipitation. In experiments using Tat-H-Ras DN or the Tat-peptide, the slices were pretreated with either aCSF (control) or 2 μM Tat-H-Ras DN or Tat-peptide for 2 hrs at room temperature, followed by ethanol treatments.
# Cross-linking was performed as described previously (22), with minor modifications. Following treatment, the slices were placed in cold aCSF in the presence or absence of 2 mg/ml of the cross-linking reagent BS^3 for 45 min at 4° C. while shaking. Slices were then rinsed three times with cold aCSF containing 20 mM Tris (pH 7.6), followed by sonication in cold homogenization buffer (10% SDS, 10 mM EDTA, 100 mM Tris (pH 8.0), and protease and phosphatase inhibitor cocktails). The protein concentration was determined using the BCA assay, followed by SDS-PAGE and Western blot analysis. Data are expressed as ratio of normalized surface expressed or internalized receptors to the total receptor levels.
# Proteins were separated by SDS-PAGE and blotted onto a nitrocellulose membrane. After blocking, the membranes were incubated with the specific primary antibody, followed by horseradish peroxidase-conjugated secondary antibody. Detection was obtained followed by enhanced chemiluminescent reaction (Amersham Biosciences), and processed using the STORM PhosphoImager (Amersham Biosciences). Results were quantified by NIH Image 1.61.
# [2] = tested on: NMDAR; test: NMDAR-mediated EPSCs, whole-cell voltage clamp, hippocampal CA1; assay type: cell-based, mouse; conditions: for slowing of the weighted decay time compared to the control: 80 mM ethanol; for % Fast / τF / τS / τW: double exponential fit; for τW: 0 min 47.4 ms
# Method: Electrophysiological recordings were performed in C57BL/6J mice ranging from P21 to P26. Briefly, mice were anesthetized with halothane and decapitated as per University of California, San Francisco animal care guidelines. Horizontal sections of the hippocampus ([…]) were prepared with a vibratome (Leica, Nussloch, Germany). Slices were placed in a holding chamber and allowed to recover for at least 1 hr before being placed in the recording chamber and superfused with aCSF saturated with 95% O2/5% CO2 and containing (in mM): 119 NaCl, 1.6 KCl, 1.0 NaH2PO4, 1.3 MgCl2 (for EPSCs) or 0.01 MgCl2 (for field excitatory postsynaptic potentials (fEPSPs)), 2.5 CaCl2, 26.2 NaHCO3 and 11 glucose. Picrotoxin (100 μM) was added to block gamma-aminobutyric acid-A (GABAA) receptor-mediated inhibitory synaptic transmission, and CNQX (for EPSCs) or NBQX (for fEPSPs) (10 μM) was added to block α-amino-3-hydroxy-5-methyl-4-isoxalepropionate (AMPA)/Kainate receptors. Cells were visualized using infrared differential interference contrast video microscopy.
# Whole-cell voltage clamp-recordings were made using an Axopatch ID or a MultiClamp 700A amplifier (Axon Instruments, Union City, Calif.). Electrodes (3.5-5.0 MΩ) contained (in mM): 120 Cesium methansulfonate, 20 HEPES, 0.4 EGTA, 2.8 NaCl, 5 TEA-Cl, 2.5 MgATP, and 0.25 NaGTP (pH 7.2-7.3), buffer at 270-285 mOsm. Series resistance (10-30 MΩ) and input resistance were monitored on-line with a 4 mV depolarizing step (50 ms) given just after every afferent stimulus. Recordings from the CA1 region of the hippocampus were obtained with a bipolar stimulating electrode that was placed 100-300 μm rostral to the recording electrode and was used to stimulate excitatory afferents at 0.1 Hz. Neurons were voltage-clamped at +40 mV to evoke NMDAR-mediated EPSCs. At this potential, NMDARs have a maximal open probability and the Mg^2+ block is removed. EPSCs were filtered at 2 kHz, digitized at 5-10 kHz and collected on-line using Igor Pro software (Wavemetrics, Lake Oswego, Oreg.) or pClamp 9 (Axon Instruments, Union City, Calif.). NMDAR example traces were constructed by averaging 20 EPSCs (200 sec) elicited at +40 mV during baseline, ethanol application, drug application or drug application with ethanol. To calculate the decay time (τ), Igor Pro software was used to fit exponential decay curves to averaged NMDAR-mediated EPSCs using the formula: y=A1exp(−invTau1*x)+A2exp(−invTau2X).
# [3] = tested on: NR2B; conditions: ethanol, hippocampal slices, data not shown
# Method: as §1
# (§2) Chymotrypsin experiments were performed as described previously (22), with minor modifications. Following recovery, slices were treated with aCSF or 0.5 mg/ml chymotrypsin at 32° C. for 5 min. […] The protein concentration was determined using the BCA assay, followed by SDS-PAGE and Western blot analysis.
# (§3) Proteins were separated by SDS-PAGE and blotted onto a nitrocellulose membrane. […] Results were quantified by NIH Image 1.61.
# [4] = tested on: NR2A subunits; conditions: 100 mM ethanol, 15 min, hippocampal slices
# Method: as §1, §2, §3
# [5] = 15 min exposure to ethanol (80 mM), n=6
# [6] = 30 min exposure to ethanol (80 mM), n=6
structure (smiles),measurement,setting,value
CCO [ethanol],change in subcellular localization of NR2A after ethanol washout,"[1]; 100 mM ethanol 15 min, washed out, 15 min recovery",not observed
same,intracellular level of NR2A,"[1]; 100 mM ethanol, 15 min, hippocampal slices",significant increase
same,NR2A internalization in Fyn+/+ and Fyn-/- mice,"[1]; 100 mM ethanol, 15 min, slices from Fyn+/+ and Fyn-/- mice",significantly enhanced
same,internalization of the NR2A subunits in Src+/+ mice,"[1]; 100 mM ethanol, 15 min, slices from Src+/+ mice",significantly increased
same,NR2A internalization in Src+/- mice upon ethanol,"[1]; 100 mM ethanol, 15 min, slices from Src+/- mice, NR2A internalized under basal conditions",no additional changes
same,surface expression of the NR2A subunit at lower ethanol concentrations,"[1]; ethanol as low as 25 mM, 15 min, hippocampal slices",reduction
same,inhibition of EPSCs at low ethanol concentration,"[2]; 25 mM ethanol, n=18, data not shown",24±6%
same,effect of ethanol on the remaining portion of the NMDAR EPSCs,[2]; 80 mM ethanol bath applied after NVP-AAM077 0.4 μM,did not alter
same,slowing of the weighted decay time compared to the control,"[2]; after 15 min, n=6",33±14%
same,slowing of the weighted decay time compared to the control,"[2]; after 30 min, n=6",70±29%
same,% Fast,[2]; [5],12.5 ± 3.1%
same,τF,[2]; [5],34.5 ± 2.1 ms
same,τS,[2]; [5],256.3 ± 51.8* ms
same,τW,[2]; [5],62.2 ± 10* ms
same,τW,"[2]; 15 min exposure to ethanol (80 mM), n=6, listed as Ethanol",62 ± 10 ms
same,% Fast,[2]; [6],112.6 ± 2.0%
same,τF,[2]; [6],42.4 ± 4.4* ms
same,τS,[2]; [6],354.0 ± 91.1 ms
same,τW,[2]; [6],77.8 ± 14.1* ms
same,τW,"[2]; 30 min exposure to ethanol (80 mM), n=6, listed as Ethanol",78 ± 14 ms
same,inhibition of NMDAR-mediated EPSCs,"[2]; bath application of 80 mM ethanol, n=9, data not shown",37±7%
same,further decrease in remaining current,[2]; bath application of ethanol in the presence of ifenprodil (3 μM),36%
same,total reduction of NMDAR EPSCs,"[2]; ifenprodil (3 μM) plus ethanol, n=6",73±7%
same,surface or intracellular levels of NR2B (chymotrypsin),[3],no effects
same,internalization of the NR2A subunits (chymotrypsin),[4],significantly increased
